Converted amounts (≈) assume the structure as drawn. Marks after values point to notes of the source that are not given here.
Columns and labels:
[1] = tested on: S. Enteritidis ATCC 13076; assay: Antibacterial TLC bioautography; type: cell-based, Salmonella enterica subsp. enterica var. Enteritidis
Description: (§1) The compounds in the crude extract and fractions, as well as the purified compounds were developed as described above but the bioautograms were sprayed with respective cultures. After development, the TLC plates were dried overnight in a stream of cold air and sprayed with an actively growing concentrated suspension of strains of either Staphylococcus aureus (ATCC 29213), Salmonella enterica subsp. enterica var. Enteritidis (S. Enteritidis ATCC 13076) or Escherichia coli (ATCC 25922). The plates were dried and incubated overnight at 37°C in closed, sterile, humidified plastic containers to allow growth of the bacteria on the plates. After incubation, the plates were sprayed with a sterile 2 mg/ml solution of p-iodonitrotetrazolium (INT, Sigma-Aldrich) salt and incubated for a further 1 h. The presence of clear zones on the chromatogram after the incubation period indicated inhibition of growth as the INT is metabolised to a coloured formazan product by the actively growing cells ([11]). The retention factors of the bands of inhibition were calculated.

[2] = tested on: Staphylococcus aureus (ATCC 29213); assay: MIC by serial two-fold microdilution; type: cell-based; conditions: ATCC29213, 24 h
Description: (§2) The four bacterial cultures were prepared by inoculating a single colony from an agar plate into 10 ml of sterilised Mueller-Hinton (MH) broth (Merck, South Africa) and incubating at 37°C in an MRC orbital shaker (150 rpm) incubator (United Scientific, South Africa) for 18 to 20 h prior to the experiment. Following incubation, each bacterial strain was diluted in MH broth (Merck, South Africa) and the absorbance was measured at a wavelength of 560 nm using a spectrophotometer (Epoch microplate reader: BioTek, United States).
(§3) The assay was performed in microtitre plates (Lasec, South Africa) by adding 100 μl of sterile water to all wells. In the first row, 100 μl of extract, fraction or compound were added in triplicate and serially diluted two-fold to the last well, from which 100 μl were then discarded. Gentamicin (Virbac, South Africa) was used as a positive control and a sterility control containing only water was included. This was followed by addition of 100 μl of the bacterial suspension to each well (except for the sterility control). The plates were sealed with parafilm and incubated at 37°C (IncoTherm, Labotec). After 24 h, 40 μl of a 0.2 mg/ml solution of INT was added to each well and the plate further incubated for at least half an hour to ensure adequate colour development. INT is a dehydrogenase activity detecting reagent, which is converted into an intensely coloured red-purple formazan by metabolically active micro-organisms. Inhibition of growth was indicated by a clear solution or a noticeable decrease in colour reaction. This value was taken as the MIC of the sample. The experiments were conducted twice.

[3] = tested on: Escherichia coli (ATCC 25922); assay: MIC by serial two-fold microdilution; type: cell-based; conditions: ATCC25922, 24 h
Description: as §2, §3

[4] = tested on: Escherichia coli (clinical strain); assay: MIC by serial two-fold microdilution; type: cell-based; conditions: 24 h
Description: as §2, §3

DPPH free radical assay = conditions: for DPPH IC50: 30 min, 516 nm; for DPPH IC50 obtained after log transformation of data: value in brackets, data not normally distributed
Description: The antioxidant activities of the samples were measured in terms of radical scavenging ability using the stable radical (DPPH) method of Brand-Williams et al. ([12]) with some modifications. Methanol solutions (40 μl) of the samples and positive controls (Trolox and ascorbic acid) at various concentrations (0.1–100 μg/ml) were prepared by serial dilution in a 96 well-microtitre plate. One hundred and sixty (160) μl of DPPH in methanol adjusted to an absorbance between 0.9 and 1.0 was added and the plates were incubated in the dark at room temperature (25°C) for 30 min. Absorbance was measured against a blank with a microtitre plate reader (Epoch, BioTek, United States) at 516 nm. The DPPH scavenging effect was determined using the following formula:
(1) DPPH Scavenging Effect(%)=[(A1-A2/A1)] × 100
Where A1 is the absorbance of the control reaction and A2 is the absorbance in the presence of the sample. Trolox and ascorbic acid were used as controls. The experiments were conducted twice.

[5] = Qualitative antioxidant activity, TLC sprayed with DPPH; conditions: TLC sprayed with DPPH 0.2% w/v
Description: TLC plates (10 × 20 cm, aluminium-backed, Merck, silica gel 60 F254) were loaded with 10 μl of the crude extract, fraction or compound (re-dissolved to 10 mg/ml) and dried before being developed in two mobile phase systems (CEF and EMW). […] A change of colour from the DPPH purple background to yellow indicated the presence of antioxidant compounds ([13]).

15-LOX = target: T1, 15-LOX (Glycine max, UniProt P08170); assay: biochemical
T1 construct: purchased Sigma Aldrich, Germany
T1 sequence (P08170 1-839): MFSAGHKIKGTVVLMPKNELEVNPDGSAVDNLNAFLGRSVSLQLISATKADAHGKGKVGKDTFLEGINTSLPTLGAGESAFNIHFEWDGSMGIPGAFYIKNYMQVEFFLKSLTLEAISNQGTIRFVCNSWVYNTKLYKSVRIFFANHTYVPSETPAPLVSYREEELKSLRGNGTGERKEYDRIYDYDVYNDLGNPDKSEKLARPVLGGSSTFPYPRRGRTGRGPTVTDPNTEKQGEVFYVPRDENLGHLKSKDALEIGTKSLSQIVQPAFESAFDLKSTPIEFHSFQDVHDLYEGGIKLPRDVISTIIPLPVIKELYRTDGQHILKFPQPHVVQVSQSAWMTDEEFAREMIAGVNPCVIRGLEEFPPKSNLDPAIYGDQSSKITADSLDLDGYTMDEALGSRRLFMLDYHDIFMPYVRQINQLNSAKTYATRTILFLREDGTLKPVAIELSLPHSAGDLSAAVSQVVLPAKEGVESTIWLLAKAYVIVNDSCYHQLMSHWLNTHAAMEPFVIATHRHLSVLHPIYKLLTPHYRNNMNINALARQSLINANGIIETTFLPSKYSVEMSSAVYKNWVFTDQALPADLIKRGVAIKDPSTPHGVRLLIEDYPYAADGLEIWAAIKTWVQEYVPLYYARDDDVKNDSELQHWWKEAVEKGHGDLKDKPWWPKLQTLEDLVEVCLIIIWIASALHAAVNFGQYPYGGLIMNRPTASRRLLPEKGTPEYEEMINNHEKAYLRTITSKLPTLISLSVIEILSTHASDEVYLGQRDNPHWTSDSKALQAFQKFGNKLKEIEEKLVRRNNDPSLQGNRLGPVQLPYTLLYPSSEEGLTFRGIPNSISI
Description: Lipoxygenase (LOX) activity of the samples was determined spectrophotometrically according to published methods ([17], [18]). LOX inhibition was determined spectrophotometrically based on the formation of the complex Fe3+/xylenol orange as described by Pinto et al. ([19]). Briefly, 20 μl of Tris-HCl buffer (pH 7.4) was added to all wells of the 96-well-microplates. This was followed by the addition of 20 μl of the fractions (1 or 0.5 mg/ml) in the first row of the plate which was serially diluted. […] After the serial dilution, 40 μl of the lipoxygenase enzyme (Sigma Aldrich, Germany) was added to each well and the plates were incubated at room temperature 25°C for 5 min. After incubation, 40 μl of linoleic acid (final concentration, 140 μM) prepared in Tris-HCl buffer (50 mM, pH 7.4) was added to the well (except for the blanks). The plates were incubated at 25°C for 20 min in the dark. After incubation, 100 μl of freshly prepared ferrous oxidation–xylenol orange (FOX) reagent [sulfuric acid (30 mM), xylenol orange (100 μM), iron (II) sulphate (100 μM) in methanol/water (9:1)] was added to all wells. The plates were further incubated at 25°C for 30 min in the dark, 40 μl of linoleic acid was then added to the blanks. The absorbance was measured at 560 nm. […] The experiments were conducted twice.

[6] = tested on: three ATCC strains and E. coli clinical strain; assay: MIC by microdilution, stated over the whole panel of strains; type: cell-based
Description: as §2
as §3, with “INT is a dehydrogenase activity detecting reagent, which is converted into an intensely coloured red-purple formazan by metabolically active micro-organisms. Inhibition of growth was indicated by a clear solution or a noticeable decrease in colour reaction. This value was taken as the MIC of the sample. The experiments were conducted twice.” left out

[7] = tested on: Staphylococcus aureus (ATCC 29213); assay: Antibacterial TLC bioautography; type: cell-based; conditions: S. aureus
Description: as §1

[8] = tested on: Escherichia coli (ATCC 25922); assay: Antibacterial TLC bioautography; type: cell-based; conditions: E. coli
Description: as §1

[9] = ABTS free-radical-scavenging assay; conditions: for ABTS IC50: 6 min, 734 nm; for ABTS IC50 obtained after log transformation of data: value in brackets, data not normally distributed
Description: The free radical-scavenging activity as a measure of hydrogen donating capacity was determined by using the ABTS cation decolourization method of Re et al. ([16]) with some modifications. ABTS radical solution (7 μM) was prepared by dissolving 1.32 × 10^4 μg of ABTS in 10 ml of 50% methanolic solution and 7.68 × 10^4 μg of potassium persulphate ([…]) in 10 ml of distilled water. The two solutions were mixed together and made up to 200 ml with 50% methanolic solution, and kept in the dark at room temperature, 25°C for 12 h. Prior to running the assay, the ABTS radical solution was diluted with 50% methanolic solution to an absorbance between 0.7 and 0.8 at 734 nm. The samples were serially diluted (40 μl) (0.1–100 μg/ml) in 96 well-microtitre plates and 160 μl of ABTS radical solution was added to each well. The absorbance readings were taken after exactly 6 min of reaction and blanks were prepared using the respective samples without ABTS radical. The scavenging effect was calculated using the following formula:
(2) ABTS Scavenging Effect(%)=[(A1-A2/A1)] × 100
The IC50 values were calculated from a graph plotted as inhibition percentage against the concentration. A Trolox standard curve was drawn by plotting percentage inhibition of the ABTS+ radical against the concentration of Trolox. Data from the test samples were analysed in a similar manner.

in vitro = conditions: monkey
Description: (§4) The cytotoxic effect of the fractions and the isolated compounds was determined using an in vitro assay with Vero monkey kidney cells ([15]). The growth medium used was Minimal Essential Medium (MEM, Whitehead Scientific) supplemented with 0.1% gentamicin (Virbac) and 5% foetal calf serum (Highveld Biological). The cells were seeded at a density of 10 000 cells/per well in 96-well-microtitre plates. The plates were incubated at 37°C in a 5% CO2 incubator in a humidified environment for 24 h to allow cell attachment.
(§5) After incubation, the medium was aspirated and replaced with fresh MEM. The fractions/compounds (100 μl) of varying concentrations were added to the wells containing cells. The anticancer compound doxorubicin (Pfizer Laboratories) was used as a positive control. A suitable blank control with equivalent concentrations of fresh medium was also included and the plates were further incubated for 48 h in a CO2 incubator. Subsequently, the medium in each well was aspirated from the cells, which were washed with phosphate-buffered saline (PBS) and fresh medium was then added to each well. A 30 μl aliquot of MTT (5 mg/ml in PBS) was added to each well and the plates were incubated at 37°C for 4 h. The medium was then aspirated from wells and 50 μl DMSO was added to each well to solubilise the formed formazan crystals. The absorbance was measured on a BioTek Synergy microtitre plate reader at 570 nm. Cell growth inhibition for each extract was expressed in terms of LC50 values. […] The cytotoxicity assay was repeated thrice.

[10] = tested on: Salmonella Enteritidis (ATCC 13076); assay: MIC by serial two-fold microdilution; type: cell-based, Salmonella enterica subsp. enterica var. Enteritidis; conditions: Salmonella enterica, 24 h
Description: as §2
as §3, with “INT is a dehydrogenase activity detecting reagent, which is converted into an intensely coloured red-purple formazan by metabolically active micro-organisms. Inhibition of growth was indicated by a clear solution or a noticeable decrease in colour reaction. This value was taken as the MIC of the sample. The experiments were conducted twice.” left out

Description for Vero monkey kidney cells: as §4, §5

DPPH IC50 (DPPH free radical assay) | ABTS IC50 [9] | Structure (SMILES) | MIC [2] | MIC [3] | MIC [4] | CC50 at 48 h (in vitro) | DPPH IC50 obtained after log transformation of data (DPPH free radical assay) | ABTS IC50 obtained after log transformation of data [9] | also measured
3.19 ± 0.32 µg/mL | 2.21 ± 0.30 µg/mL | Cc1c(C)c2c(c(C)c1O)CCC(C)(C(=O)O)O2 (stereo not drawn) [Trolox] | – | – | – | – | 4.02 μg/ml | 2.76 μg/ml | –
1.97 ± 0.21 µg/mL | 1.90 ± 0.07 µg/mL | O=C1O[C@H]([C@@H](O)CO)C(O)=C1O [Ascorbic acid, ascorbic acid] | – | – | – | – | 2.45 μg/ml | 2.45 μg/ml | –

Second part, the compound before the results:

Structure (SMILES) | DPPH IC50 (DPPH free radical assay) | ABTS IC50 [9] | MIC [2] | MIC [3] | MIC [4] | CC50 at 48 h (in vitro) | DPPH IC50 obtained after log transformation of data (DPPH free radical assay) | ABTS IC50 obtained after log transformation of data [9] | also measured
O=c1cc(-c2ccc(O)c(O)c2)oc2cc(O)cc(O)c12 [Compound 1, luteolin] | 5.92 ± 0.64^a μg/ml | 8.17 ± 0.80^a μg/ml | 625 µg/mL (≈ 2180 µM) | 156 µg/mL (≈ 545 µM) | 156 µg/mL (≈ 545 µM) | 92.9 ± 1.7 µg/mL (≈ 325 µM) | – | – | antibacterial activity in bioautography [1]: active; antioxidant activity in bioautography (DPPH bleaching) [5]: antioxidant activity; IC50 (15-LOX): 25.8 µM; MIC ([6]; Escherichia coli, three ATCC strains and E. coli clinical strain, read-out: MIC values over the tested strains): > 100 µg/mL; antibacterial activity class ([6]; all the tested bacterial strains): weak (values >625 μg/ml indicate weak activity); cytotoxicity class (Vero monkey kidney cells): moderate; antibacterial activity in bioautography [7]: active; antibacterial activity in bioautography [8]: active
CNC(C)C1CCC(N)C(OC2C(N)CC(N)C(OC3OCC(C)(O)C(NC)C3O)C2O)O1 (stereo not drawn) [Gentamicin, reference compound] | – | – | 20 µg/mL (≈ 41.9 µM) | 20 µg/mL (≈ 41.9 µM) | 20 µg/mL (≈ 41.9 µM) | – | – | – | MIC [10]: 20 µg/mL (≈ 41.9 µM)
COc1cccc2c1C(=O)c1c(O)c3c(c(O)c1C2=O)C[C@@](O)(C(=O)CO)C[C@@H]3O[C@H]1C[C@H](N)[C@H](O)[C@H](C)O1 [Doxorubicin, doxorubicin, reference compound] | – | – | – | – | – | 9 ± 1.28 µg/mL (≈ 16.6 µM) | – | – | –
